Laboratory results published in patent US20210361565A1, “Oral Pharmaceutical Composition of an NK-1 Antagonist” (Intervet Inc., priority 2017, published 2021).

Columns and labels:
[1] = test system: centrally acting emetogens (apomorphine IV) and peripherally acting emetogens (syrup of ipecac orally); conditions: dogs; cited from earlier work
[2] = test system: chemotherapy induced nausea and vomiting; conditions: humans; cited from earlier work
[3] = test system: apomorphine-induced emesis; assay: Apomorphine-induced emesis model; format: in vivo, dog; conditions: single oral dose 5 mg/kg; FIGS. 5A-5B
Text: Apomorphine-induced emesis model is a well-established canine model to investigate antiemetic actions of new compounds and has been used in studies investigating new NK1 antagonists (Furukawa et al. Biol Pharm Bull 36:974-979, 2013) as well as Cerenia and other antiemetic drugs used in dogs (Sedlacek et al. J Vet Pharmacol Therap 31:533-537, 2008).
The canine model of apomorphine-induced emesis is a well-established model to investigate antiemetic actions of new compounds and has been used in studies investigating new NK1 antagonists (Furukawa et al. Biol Pharm Bull 36:974-979, 2013) as well as Cerenia and other antiemetic drugs used in dogs (Sedlacek et al. J Vet Pharmacol Therap 31:533-537, 2008). This model was used to evaluate the antiemetic activity of telmapitant in non-aqueous solution formulations and solid formulations (FIGS. 4A and 4B). The onset of action (FIGS. 4A and 4B) as well as the duration of activity (FIGS. 5A and 5B) were investigated after a single oral administration. Intravenous (IV) administration of apomorphine (emetogenic challenge 0.03 mg/kg) was delivered to all individuals 2 h, 4 h, 6 h, 8 h, 24 h, and 120 h (FIGS. 4A and 4B) or 1 d, 3 d, 5 d, 6 d, and 7 d (FIGS. 5A and 5B). […] Any emetic events (vomiting episodes and/or retches) following each emetogenic challenge were recorded for 20 min. […]

SMILES: COc1ccc(C(C)(C)C)cc1CN[C@H]1C2CCN(CC2)[C@H]1C(c1ccccc1)c1ccccc1 [maropitant]
- antiemetic effectiveness against emetogens [1]: effective

SMILES: C[C@@H](OC[C@@]1(c2ccccc2)CC[C@]2(CCC(=O)N2)CN1)c1cc(C(F)(F)F)cc(C(F)(F)F)c1 [rolapitant]
- efficacy and safety for prevention of chemotherapy induced nausea and vomiting [2]: efficacious and safe

SMILES: C[C@@H](OC[C@@]1(c2ccccc2)CC[C@]2(CN1)NC(=O)NC2=O)c1cc(C(F)(F)F)cc(C(F)(F)F)c1 [telmapitant, (5R,8S)-8-[[(1R)-1-[3,5-bis(trifluoromethyl)phenyl]ethoxy]methyl]-8-phenyl-1,3,9-triazaspiro[4.5]decane-2,4-dione]
- antiemetic data at 5 mg/kg versus 7 mg/kg [3]: not significantly different
